In patent publication US7109240B2, “Non-hazardous pest control” (Ecosmart Technologies, Inc., priority 1993, dated 2006):

Legend:
German cockroaches [1] = test: Knockdown of cockroaches continuously confined to calcium carbonate + 5% neurally effective substance; assay type: in vivo, Blattella, germanica; conditions: for insecticidal activity (in words): 5% (wt/wt) in calcium carbonate, or dust alone; for KT50 / KT90 / KT90, Hours: 5% (wt/wt) ingredient in calcium carbonate, or dust alone, 1.2 cc, 78 ± 4° F., 55 ± 6% rh
Procedure: (§1) Continuous exposure tests.—The intrinsic insecticidal activity of the insecticide dust against B. germanica was determined by exposing cockroaches to fresh and aged deposits of the dust. Replicated groups of three to ten adult cockroaches from culture were confined to deposits of the dust, and its speed of action in terms of knockdown (KD) and paralysis was determined. Adult male cockroaches from culture were placed directly onto fairly heavy deposits of dust (1 to 1.2 cc) spread evenly on filter paper in covered 9-cm-diameter petri dishes. The time for irreversible KD to occur (KT) was determined from periodic, irregular observation. The insects were considered KD when they were on their back, or could be turned over, and could not right themselves within at least two minutes. […] Comparison of KD activity was made with some commercial dust formulations including a non-fluorinated silica aerogel (SG-68), Drione™ (a fluorinated silica aerogel+pyrethrins), and a commercial diatomaceous earth (Celite™) applied and tested in the same manner.
(§2) The beads were screened out of the resultant mix. Exactly 1.2 cc of dust or dust was spread onto Whatman filter paper in 9-cm-diam petri dishes and the knockdown (KD) of cockroaches confined to the dust mix was determined by periodically observing KD.

German cockroaches [2] = conditions: choice box; repellency measure
Procedure: Choice box tests.—The activity and repellency of the present insecticide dust in a choice test was determined with standard two-compartment choice boxes.
Choice boxes are 30.5 cm square, 10 cm tall wooden boxes, with a tempered masonite floor. A vertical partition panel separates the box into two equal-sized compartments. A 1.3 cm hole at the top center of the partition panel allows cockroaches to move from one compartment to the other. Transparent sheet plexiglass (0.3 cm thick) taped to the top retains cockroaches in the box and allows observation of live and dead in each compartment. A piece of masonite keeps one compartment dark (dark compartment). […]
Five boxes were used for each treatment and the untreated control. […] Cockroaches prefer to aggregate in the dark, and they will normally readily move from the light compartment to the dark compartment of untreated choice boxes within a day or two. […] The number dead and alive in each compartment of each box was recorded every few days. […]
The mortality produced in choice boxes, and the position of cockroaches in relation to the treatment, provides a measure of the likely ultimate efficacy of a treatment when used under actual field conditions. […] On the other hand, slow-acting insecticides such as boric acid are effective in choice box tests because cockroaches readily walk on those deposits and are eventually killed by them.

German cockroaches [3] = test: Phenol vs. terpineol in calcium carbonate: knockdown of cockroaches; assay type: in vivo, Blattella, germanica
Procedure: as §2
A further test was conducted to compare the effectiveness of phenol vs. terpineol as a neurally effective substance.

[4] = system: adult male German cockroaches; test: Control test: knockdown of cockroaches continuously confined to deposits of the solid dust components; assay type: in vivo, Blattella, germanica; conditions: continuously confined to dust deposit; 76° F., 55% relative humidity
Procedure: as §1
A control test was conducted using only the solid components of the embodiment.

[5] = 0.32 % (wt/wt) in calcium carbonate
[6] = 0.63 % (wt/wt) in calcium carbonate
[7] = 1.25 % (wt/wt) in calcium carbonate
[8] = 2.5 % (wt/wt) in calcium carbonate
[9] = 5.0 % (wt/wt) in calcium carbonate

## CCCCC/C(C=O)=C/c1ccccc1 [Amyl cinnamic aldehyde, 5%, Amyl cinnamic aldehyde]
German cockroaches [1]
  insecticidal activity (in words): much slower, about as active as diatomaceous earth
  KT50: 9.4 h
  KT90: 15.5 h

## CC(=O)OCc1ccccc1 [Benzyl acetate]
German cockroaches [1]
  insecticidal activity (in words): most active
  KT50: 0.7 h
  KT90: 1.0 h
German cockroaches [1]; listed as benzyl acetate
  KT90, Hours: about one hour or so

## OB(O)O [Boric acid, tech., Boric acid]
German cockroaches [2]
  % of live in light on day 1: 13%
  % of live in light on day 7: 100%

## O=C([O-])[O-].[Ca+2] [Calcium carbonate (CaCO3), Calcium carbonate]
German cockroaches [1]
  insecticidal activity (in words): not insecticidal
German cockroaches [1]; dust alone
  % KD at 24 h: (1.3% KD at 24 h)

## CCOC(=O)c1ccccc1C(=O)OCC [Diethyl phthalate]
German cockroaches [1]
  insecticidal activity (in words): not insecticidal

## Oc1ccccc1 [Phenol]
German cockroaches [3]; [5]
  KT-50: 16.5 h
  KT-90: 24.0 h
German cockroaches [3]; [6]
  KT-50: 7.5 h
  KT-90: 20.3 h
German cockroaches [3]; [7]
  KT-50: 0.4 h
  KT-90: 1.5 h
German cockroaches [3]; [8]
  KT-50: 0.2 h
  KT-90: 0.4 h
German cockroaches [3]; [9]
  KT-50: <0.1 h
  KT-90: 0.1 h
German cockroaches [3]; in CaCO3, every rate tested
  insecticidal activity (in words): more insecticidal than terpineol

## OCCc1ccccc1 [Phenyl ethyl alcohol]
German cockroaches [1]
  insecticidal activity (in words): most active
  KT50: 0.7 h
  KT90: 1.0 h
German cockroaches [1]; listed as phenyl ethyl alcohol
  KT90, Hours: about one hour or so

## O=C([O-])O.[Na+] [Sodium bicarbonate (NaHCO3), Sodium bicarbonate]
[4]
  KT50: 16.5 h
  KT90: 20.9 h
German cockroaches [1]
  KT50: 9.7 h
  KT90: 16.0 h
